Measurements published in ChEMBL document CHEMBL1131494, “Novel 17-azolyl steroids, potent inhibitors of human cytochrome 17 alpha-hydroxylase-C17,20-lyase (P450(17) alpha): potential agents for the treatment of prostate cancer” (J Med Chem, 1998).

How the values were obtained:
[1] = target: T1, Steroid 17-alpha-hydroxylase/17,20 lyase (Rattus norvegicus, UniProt P11715); test: Inhibition of rat cytochrome P450 17A1
T1 sequence (P11715 whole entry): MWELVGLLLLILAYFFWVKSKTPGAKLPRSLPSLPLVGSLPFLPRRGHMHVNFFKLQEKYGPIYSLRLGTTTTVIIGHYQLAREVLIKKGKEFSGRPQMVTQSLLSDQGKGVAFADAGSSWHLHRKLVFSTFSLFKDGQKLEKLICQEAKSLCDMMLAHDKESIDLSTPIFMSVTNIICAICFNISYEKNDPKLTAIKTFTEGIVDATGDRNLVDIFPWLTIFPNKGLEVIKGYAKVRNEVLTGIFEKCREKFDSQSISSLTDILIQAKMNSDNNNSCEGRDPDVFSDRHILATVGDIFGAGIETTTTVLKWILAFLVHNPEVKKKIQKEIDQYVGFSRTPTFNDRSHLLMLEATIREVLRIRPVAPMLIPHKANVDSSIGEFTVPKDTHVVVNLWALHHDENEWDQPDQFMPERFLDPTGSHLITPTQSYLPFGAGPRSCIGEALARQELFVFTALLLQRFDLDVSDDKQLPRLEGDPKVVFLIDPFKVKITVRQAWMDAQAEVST

[2] = target: T2, Steroid 17-alpha-hydroxylase/17,20 lyase (Homo sapiens, UniProt P05093); test: Inhibition of human testicular microsomal Cytochrome P450 17A1
T2 sequence (P05093 whole entry): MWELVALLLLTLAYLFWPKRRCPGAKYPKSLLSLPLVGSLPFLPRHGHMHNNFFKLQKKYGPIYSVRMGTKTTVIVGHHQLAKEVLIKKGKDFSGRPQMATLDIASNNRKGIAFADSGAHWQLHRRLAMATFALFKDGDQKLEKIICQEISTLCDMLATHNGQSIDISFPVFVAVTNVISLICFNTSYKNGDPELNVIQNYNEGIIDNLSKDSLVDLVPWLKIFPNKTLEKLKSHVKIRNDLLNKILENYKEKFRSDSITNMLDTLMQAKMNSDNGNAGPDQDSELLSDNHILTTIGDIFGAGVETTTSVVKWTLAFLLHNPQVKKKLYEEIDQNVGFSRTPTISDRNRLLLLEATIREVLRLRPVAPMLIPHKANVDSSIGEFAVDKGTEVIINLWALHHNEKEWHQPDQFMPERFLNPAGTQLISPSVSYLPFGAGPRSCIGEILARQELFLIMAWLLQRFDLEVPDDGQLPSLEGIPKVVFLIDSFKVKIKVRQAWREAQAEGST

[3] = Inhibition of human steroid 5-alpha-reductase
[4] = target: T2, Steroid 17-alpha-hydroxylase/17,20 lyase
Description: Binding affinity for Cytochrome P450 17A1 (17-alpha-hydroxypregnenolone Km=560 nM)

[5] = target: T2, Steroid 17-alpha-hydroxylase/17,20 lyase; test: Inhibition of human testicular microsomal cytochrome P450 17A1 at 150 nM; NI = No inhibition; settings: 0.15 µM
[6] = target: T1, Steroid 17-alpha-hydroxylase/17,20 lyase; test: Inhibition of rat Cytochrome P450 17A1
[7] = target: T2, Steroid 17-alpha-hydroxylase/17,20 lyase; test: Inhibition of human testicular microsomal cytochrome P450 17A1 at 150 nM; no inhibition
[8] = target: T2, Steroid 17-alpha-hydroxylase/17,20 lyase; test: Inhibition of human testicular microsomal cytochrome P450 17A1 at 150 nM; NI = No inhibition; settings: 0.15 µM
[9] = target: T2, Steroid 17-alpha-hydroxylase/17,20 lyase; remark: listed apart in the source

Row | Structure (SMILES) | IC50 [2] [nM] | IC50 [3] [nM] | Ki [4] [nM] | IC50 [6] [nM] | also measured
1 | C[C@]12CC[C@H](O)CC1=CC[C@@H]1[C@@H]2CC[C@]2(C)C(n3cncn3)=CC[C@@H]12 | 90 | 160000 | 23 | – | IC50 [1]: 26 nM
2 | C[C@]12CC[C@H](O)CC1=CCC1C2CC[C@]2(C)C(n3cnnn3)=CCC12 (stereo partly drawn) | – | – | – | – | Inhibition [5]: Not Active
3 | C[C@]12CC[C@H](O)CC1=CCC1C2CC[C@]2(C)C(n3ccnc3)=CCC12 (stereo partly drawn) | 8 | 400000 | 1.2 | 9 | –
4 | C[C@]12CCC(=O)C=C1CCC1C2CC[C@]2(C)C(n3ccnc3)=CCC12 (stereo partly drawn) | 7 | 142 | 1.9 | 8 | –
5 | C[C@]12CC[C@H](O)CC1=CCC1C2CC[C@]2(C)C(n3nccn3)=CCC12 (stereo partly drawn) | – | – | – | – | IC50 [7]: Not Active
6 | CC(C)(C)NC(=O)[C@H]1CC[C@H]2[C@@H]3CC[C@H]4NC(=O)C=C[C@]4(C)[C@H]3CC[C@]12C [FINASTERIDE] | – | 33 | – | – | –
7 | C[C@]12CC[C@H](O)CC1=CCC1C2CC[C@]2(C)C(n3ccnn3)=CCC12 (stereo partly drawn) | 13 | 10000 | 1.4 | 10 | –
8 | C[C@]12CCC(=O)C=C1CCC1C2CC[C@]2(C)C(n3cncn3)=CCC12 (stereo partly drawn) | 55 | 152 | 41 | 11 | –
9 | C[C@]12CC[C@H](O)CC1=CCC1C2CC[C@]2(C)C(n3ncnn3)=CCC12 (stereo partly drawn) | – | – | – | – | Inhibition [8]: Not Active
10 | C[C@]12CCC(=O)C=C1CCC1C2CC[C@]2(C)C(n3ccnn3)=CCC12 (stereo partly drawn) | 19 | 198 | – | – | IC50 [1]: 9 nM; Ki [9]: 8 nM
